The test system of the assay is L1210 leukemia ip in BDF1 mice, survival T/C. The assay can be described thus: NCI In Vivo Anticancer Drug Screen. Data for tumor model L1210 Leukemia (intraperitoneal) in B6D2F1 (BDF1) mice. Conditions: endpoint: mean survival time, higher = longer survival. In short, it runs like this:
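Each compound was tested against a transplantable tumor grown in mice. The endpoint was survival, with treated animals benchmarked against vehicle controls as a simple ratio.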

The mark [1] stands for this setting: dose: 50.0 mg/kg/injection, schedule: Q01DX009 (ip), vehicle: saline with Tween-80.
Where [2] appears, read: dose: 100.0 mg/kg/injection, schedule: Q01DX009 (ip), vehicle: saline with Tween-80.
[3] abbreviates: dose: 50.0 mg/kg/injection, schedule: Q01DX001 (ip), vehicle: carboxymethylcellulose (CMC).
The mark [4] stands for this setting: dose: 100.0 mg/kg/injection, schedule: Q01DX001 (ip), vehicle: carboxymethylcellulose (CMC).
The mark [5] stands for this setting: dose: 200.0 mg/kg/injection, schedule: Q01DX001 (ip), vehicle: carboxymethylcellulose (CMC).
Where [6] appears, read: dose: 400.0 mg/kg/injection, schedule: Q01DX001 (ip), vehicle: carboxymethylcellulose (CMC).
Setting [7] is: dose: 25.0 mg/kg/injection, schedule: Q01DX009 (ip), vehicle: saline with Tween-80.
[8] abbreviates: dose: 50.0 mg/kg/injection, schedule: Q04DX003 (ip), vehicle: saline with Tween-80.
Setting [9] is: dose: 100.0 mg/kg/injection, schedule: Q04DX003 (ip), vehicle: saline with Tween-80.
The mark [10] stands for this setting: dose: 200.0 mg/kg/injection, schedule: Q04DX003 (ip), vehicle: saline with Tween-80.
Where [11] appears, read: dose: 55.0 mg/kg/injection, schedule: Q01DX Z (ip), vehicle: methylcellulose (MC).
[12] abbreviates: dose: 83.0 mg/kg/injection, schedule: Q01DX Z (ip), vehicle: methylcellulose (MC).
[13] abbreviates: dose: 125.0 mg/kg/injection, schedule: Q01DX Z (ip), vehicle: methylcellulose (MC).

Molecules are shown by their SMILES. Several values for one entry are separate records, joined by “and”; a condition that tells them apart may be missing. Equal entries are not always repeated. Toxic doses and inconclusive results are not listed. Square brackets hold non-standard residues; d marks the D form. Peptide text beside a SMILES is read from it. * marks the point of attachment. ξ: configuration not given here. ξV = CC(C)C(N)C(=O)O; ClAc = O=C(CCl)*

Take `CN(N=O)C(=O)NCC1OC(OC2(CO)OC(CNC(=O)N(C)N=O)C(O)C2O)C(O)C(O)C1O` (stereo not given): the T/C is 107 % of control under setting [1]; 91 % of control (dose: 50.0 mg/kg/injection, schedule: Q01DX009 (ip), vehicle: saline); 121 % of control under setting [2]; 109 % of control (dose: 100.0 mg/kg/injection, schedule: Q01DX009 (ip), vehicle: saline); 154 % of control (dose: 400.0 mg/kg/injection, schedule: Q01DX009 (ip), vehicle: saline with Tween-80).

In the case of `CC(=O)OC1CCC2(C)C(=CCC3C2CCC2(C)C3CC3OC4(CCC(C)CN4C(C)=O)C(C)C32)C1` (stereo not given), the T/C is, setting by setting: (dose: 100.0 mg/kg/injection, schedule: Q01DX001 (ip), vehicle: saline with Tween-80) 98 % of control; (dose: 200.0 mg/kg/injection, schedule: Q01DX001 (ip), vehicle: saline with Tween-80) 95 % of control; (dose: 400.0 mg/kg/injection, schedule: Q01DX001 (ip), vehicle: saline with Tween-80) 95 % of control.

Regarding `COc1ccc2c(n1)Sc1c(Cl)nc(N)nc1N2`, the T/C (dose: 100.0 mg/kg/injection, schedule: Q01DX001 (ip), vehicle: Klucel (hydroxypropylcellulose) (HPC)) is 97 % of control; the T/C (dose: 200.0 mg/kg/injection, schedule: Q01DX001 (ip), vehicle: Klucel (hydroxypropylcellulose) (HPC)) is 97 % of control; the T/C (dose: 400.0 mg/kg/injection, schedule: Q01DX001 (ip), vehicle: Klucel (hydroxypropylcellulose) (HPC)) is 98 % of control.

Consider `O=C(O)c1ccccc1N=Cc1ccc(N(CCCl)CCCl)cc1`, for which the T/C was 103 % of control under setting [3], 122 % of control under setting [4], 114 % of control under setting [5] and 111 % of control under setting [6].

With `CC(C)=CCC(CCN(C)C)(C(N)=O)c1cccc2ccccc12` (stereo not given), the T/C is, setting by setting: (dose: 5.0 mg/kg/injection, schedule: Q01DX009 (ip), vehicle: Klucel (hydroxypropylcellulose) (HPC)) 102 % of control; (dose: 5.0 mg/kg/injection, schedule: Q04DX003 (ip), vehicle: Klucel (hydroxypropylcellulose) (HPC)) 94 % of control; (dose: 10.0 mg/kg/injection, schedule: Q01DX009 (ip), vehicle: Klucel (hydroxypropylcellulose) (HPC)) 93 % of control; (dose: 10.0 mg/kg/injection, schedule: Q04DX003 (ip), vehicle: Klucel (hydroxypropylcellulose) (HPC)) 91 % of control; (dose: 20.0 mg/kg/injection, schedule: Q01DX009 (ip), vehicle: Klucel (hydroxypropylcellulose) (HPC)) 91 % of control; (dose: 20.0 mg/kg/injection, schedule: Q04DX003 (ip), vehicle: Klucel (hydroxypropylcellulose) (HPC)) 96 % of control.

`CC(=O)N1c2ccccc2Sc2cc(C(O)(C(F)(F)F)C(F)(F)F)ccc21`: the T/C under setting [7] is 95 % of control; the T/C under setting [1] is 95 % of control; the T/C under setting [8] is 95 % of control; the T/C under setting [2] was 95 % of control; the T/C under setting [9] was 91 % of control; the T/C under setting [10] was 91 % of control.

Consider `CCCCCCCCCC(O)CCC` (stereo not given), for which the T/C is 103 % of control (dose: 100.0 mg/kg/injection, schedule: Q01DX009 (ip), vehicle: Klucel (hydroxypropylcellulose) (HPC)); 96 % of control (dose: 100.0 mg/kg/injection, schedule: Q04DX003 (ip), vehicle: Klucel (hydroxypropylcellulose) (HPC)); 109 % of control (dose: 200.0 mg/kg/injection, schedule: Q01DX009 (ip), vehicle: Klucel (hydroxypropylcellulose) (HPC)); 91 % of control (dose: 200.0 mg/kg/injection, schedule: Q04DX003 (ip), vehicle: Klucel (hydroxypropylcellulose) (HPC)); 103 % of control (dose: 400.0 mg/kg/injection, schedule: Q01DX009 (ip), vehicle: Klucel (hydroxypropylcellulose) (HPC)); 89 % of control (dose: 400.0 mg/kg/injection, schedule: Q04DX003 (ip), vehicle: Klucel (hydroxypropylcellulose) (HPC)).

Turning to `CC(C)C(NC(=O)CNC(=O)CCl)C(=O)O` (stereo not given) (ClAc-Gly-[ξV]-OH), the T/C under setting [9] was 101 % of control and the T/C under setting [10] is 101 % of control.

Take `CC(CCl)OC(=O)CCO` (stereo not given): the T/C under setting [11] is 104 % of control, the T/C under setting [12] is 100 % of control and the T/C under setting [13] is 89 % of control.

Take `CCc1ccc(/C(C#N)=C/C=C/c2ccccc2)cc1`: the T/C runs as follows: (dose: 100.0 mg/kg/injection, schedule: Q04DX002 (ip), vehicle: Klucel (hydroxypropylcellulose) (HPC)) 112 % of control; (dose: 200.0 mg/kg/injection, schedule: Q04DX002 (ip), vehicle: Klucel (hydroxypropylcellulose) (HPC)) 102 % of control; (dose: 400.0 mg/kg/injection, schedule: Q04DX002 (ip), vehicle: Klucel (hydroxypropylcellulose) (HPC)) 97 % of control.

For the molecule `NC(N)=N/N=C\c1c[nH]c2ccccc12`, the T/C was 102 % of control (dose: 15.0 mg/kg/injection, schedule: Q01DX Z (ip), vehicle: carboxymethylcellulose (CMC)); 103 % of control (dose: 30.0 mg/kg/injection, schedule: Q01DX Z (ip), vehicle: carboxymethylcellulose (CMC)); 89 % of control (dose: 30.0 mg/kg/injection, schedule: Q01DX Z (oral), vehicle: carboxymethylcellulose (CMC)); 100 % of control (dose: 60.0 mg/kg/injection, schedule: Q01DX Z (ip), vehicle: carboxymethylcellulose (CMC)); 92 % of control (dose: 60.0 mg/kg/injection, schedule: Q01DX Z (oral), vehicle: carboxymethylcellulose (CMC)); 96 % of control (dose: 120.0 mg/kg/injection, schedule: Q01DX Z (oral), vehicle: carboxymethylcellulose (CMC)). The T/C (dose: 240.0 mg/kg/injection, schedule: Q01DX Z (oral), vehicle: carboxymethylcellulose (CMC)) is 96 % of control.

Take `Br/C=C(\Br)C[N+]12CN3CN(CN(C3)C1)C2`: the T/C is, setting by setting: under setting [2], 96 % of control; under setting [9], 100 % of control; under setting [10], 114 % of control; (dose: 400.0 mg/kg/injection, schedule: Q04DX003 (ip), vehicle: saline with Tween-80) 101 % of control.

`CCNC(=O)CC#N`: the T/C was 102 % of control under setting [4], 91 % of control under setting [5] and 108 % of control under setting [6].

Consider `O=c1ccc(=O)n(-c2ccc(Cl)cc2)[nH]1`, for which the T/C runs as follows: under setting [8], 103 % of control; under setting [9], 104 % of control; under setting [10], 98 % of control.

With `c1cc[c]([Hg][S]c2nc3ccccc3s2)cc1`, the T/C was 96 % of control under setting [3] and 108 % of control under setting [4].

As to `C=CCc1ccccc1OC`, the T/C runs as follows: under setting [2], 102 % of control; (dose: 200.0 mg/kg/injection, schedule: Q01DX009 (ip), vehicle: saline with Tween-80) 95 % of control.

With `CCC(CCC(C)C1CCC2C3CC=C4CC(O)CCC4(C)C3CCC12C)C(C)C` (stereo not given) (tested in a mixture with another compound), the T/C is 103 % of control (dose: 12.5 mg/kg/injection, schedule: Q#A X030 (ip), vehicle: water); 93 % of control under setting [7]; 101 % of control (dose: 25.0 mg/kg/injection, schedule: Q#A X030 (ip), vehicle: water); 89 % of control under setting [1]; 92 % of control (dose: 50.0 mg/kg/injection, schedule: Q#A X030 (ip), vehicle: water); 100 % of control under setting [9]. For the same molecule, the T/C runs as follows: (dose: 200.0 mg/kg/injection, schedule: Q01DX001 (ip), vehicle: water) 101 % of control; (dose: 400.0 mg/kg/injection, schedule: Q01DX001 (ip), vehicle: water) 95 % of control.

Take `CCOC(=O)n1cnc2nc(N)nc(SC)c21`: the T/C is 103 % of control (dose: 50.0 mg/kg/injection, schedule: Q01DX001 (ip), vehicle: saline); 97 % of control (dose: 100.0 mg/kg/injection, schedule: Q01DX001 (ip), vehicle: saline); 100 % of control (dose: 200.0 mg/kg/injection, schedule: Q01DX001 (ip), vehicle: saline); 122 % of control (dose: 400.0 mg/kg/injection, schedule: Q01DX001 (ip), vehicle: saline).

Turning to `CCc1ccccc1NC(=O)Sc1ccccc1O`, the T/C reads like this: (dose: 6.25 mg/kg/injection, schedule: Q01DX009 (ip), vehicle: saline with Tween-80) 105 % of control; (dose: 12.5 mg/kg/injection, schedule: Q01DX009 (ip), vehicle: saline with Tween-80) 105 % of control; under setting [7], 93 % of control and 102 % of control.

Turning to `CCCCC(CC)CP(=O)(CC(CC)CCCC)CC(CC)CCCC` (stereo not given), the T/C by setting is: under setting [11], 104 % of control; under setting [12], 100 % of control; under setting [13], 108 % of control.

Source of the values: PubChem BioAssay AID248 (DTP/NCI, 2004).
